Data taken from patent US20250230193A1, “CYCLIC COMPOUND HAVING SELECTIVE KRAS INHIBITORY EFFECT ON HRAS AND NRAS” (CHUGAI SEIYAKU KABUSHIKI KAISHA, priority 2022, published 2025).

Key:
[1] = target: GDP-bound NRAS wild-type protein (Homo sapiens, UniProt P01111); assay: Binding to NRAS by surface plasmon resonance (SPR), Single Cycle Kinetics; conditions: SPR; KD ratio class
[2] = tested on: human lung cancer strain NCI-H441; assay: cells; conditions: NCI-H441, 96 h, read-out: NCI-H441 IC50 (nM)
[3] = target: GDP-bound HRAS wild-type protein (Homo sapiens, UniProt P01112); assay: Binding to HRAS by surface plasmon resonance (SPR), Single Cycle Kinetics; conditions: SPR; KD ratio class
Chain of GDP-bound HRAS wild-type protein (P01112 whole entry): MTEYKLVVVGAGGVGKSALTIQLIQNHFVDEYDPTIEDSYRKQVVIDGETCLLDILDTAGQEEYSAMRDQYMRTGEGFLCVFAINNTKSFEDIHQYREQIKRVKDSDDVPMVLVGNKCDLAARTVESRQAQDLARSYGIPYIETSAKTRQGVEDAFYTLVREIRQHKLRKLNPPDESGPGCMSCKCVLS

Chain of GDP-bound NRAS wild-type protein (P01111 whole entry): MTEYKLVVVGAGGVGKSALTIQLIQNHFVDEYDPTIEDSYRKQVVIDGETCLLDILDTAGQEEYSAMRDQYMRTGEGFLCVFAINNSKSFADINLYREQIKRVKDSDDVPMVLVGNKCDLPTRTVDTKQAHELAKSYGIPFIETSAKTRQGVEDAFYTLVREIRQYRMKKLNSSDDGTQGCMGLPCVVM

IC50 [2] | SMILES | NRAS/KRAS (ratio of KD value for GDP-bound NRAS wild-type protein to KD value for KRAS) [1] | HRAS/KRAS (ratio of KD value for GDP-bound HRAS wild-type protein to KD value for KRAS) [3]
29.3 nM | CC[C@H](C)[C@@H]1NC(=O)[C@H](CC(C)C)N(C)C(=O)C[C@@H](C(=O)N2CCOCC2)N(C)C(=O)[C@H](C2CCCC2)N(C)C(=O)C2(CCC2)NC(=O)[C@@H]2CCCN2C(=O)[C@H](CCc2cc(F)c(C(F)(F)F)c(F)c2)NC(=O)CN(C)C(=O)[C@H](Cc2ccc(C(F)(F)F)cc2)N2C[C@H](C)[C@H](C)C[C@@H](C2=O)N(C)C(=O)[C@@H]2CCN2C1=O [PP1367] | A (a compound having 10 or more and less than 20 is denoted as A) | B (a compound having 3 or more and less than 10 is denoted as B)
2.9 nM | CC[C@H](C)[C@@H]1NC(=O)[C@H](CC2CC2)N(C)C(=O)C[C@@H](C(=O)N(C)C)N(C)C(=O)[C@H](C2CCCC2)N(C)C(=O)C2(CCCC2)NC(=O)[C@@H]2CCCN2C(=O)[C@H](CCc2cc(F)c(C(F)(F)F)c(F)c2)NC(=O)CN(C)C(=O)[C@H](Cc2ccc(C(F)(F)F)cc2)N2C[C@H](C)[C@H](C)C[C@@H](C2=O)N(C)C(=O)CN(C)C1=O [PP1368] | A (a compound having 10 or more and less than 20 is denoted as A) | B (a compound having 3 or more and less than 10 is denoted as B)
13.4 nM | CCO[C@@H]1C[C@H]2C(=O)NC3(CCC3)C(=O)N(C)[C@@H](C3CCCC3)C(=O)N(C)[C@H](C(=O)N3CCOCC3)CC(=O)N(C)[C@@H](CC)C(=O)N[C@@H]([C@@H](C)CC)C(=O)N3CC[C@H]3C(=O)N(C)[C@H]3CC[C@@H](C)CN(C3=O)[C@@H](Cc3ccc(C(F)(F)F)cc3)C(=O)N(C)CC(=O)N[C@@H](CCc3cc(F)c(C(F)(F)F)c(F)c3)C(=O)N2C1 [PP1369] | B (a compound having 3 or more and less than 10 is denoted as B) | B (a compound having 3 or more and less than 10 is denoted as B)
2.3 nM | CCO[C@@H]1C[C@H]2C(=O)NC3(CCCC3)C(=O)N(C)[C@@H](C3CCCC3)C(=O)N(C)[C@H](C(=O)N(C)C)CC(=O)N(C)[C@@H](CC)C(=O)N[C@@H]([C@@H](C)CC)C(=O)N(C)CC(=O)N(C)[C@H]3CC[C@@H](C)CN(C3=O)[C@@H](Cc3ccc(C(F)(F)F)cc3)C(=O)N(C)CC(=O)N[C@@H](CCc3cc(F)c(C(F)(F)F)c(F)c3)C(=O)N2C1 [PP1370] | C (A compound having a KD ratio of 0.1 or more and less than 3 is denoted as C) | C (A compound having a KD ratio of 0.1 or more and less than 3 is denoted as C)
5.1 nM | CCO[C@@H]1C[C@H]2C(=O)NC3(CCCC3)C(=O)N(C)[C@@H](C3CCCC3)C(=O)N(C)[C@H](C(=O)N3CCOCC3)CC(=O)N(C)[C@@H](CC)C(=O)N[C@@H]([C@@H](C)CC)C(=O)N(C)CC(=O)N(C)[C@H]3CC[C@@H](C)CN(C3=O)[C@@H](Cc3ccc(C(F)(F)F)cc3)C(=O)N(C)CC(=O)N[C@@H](CCc3cc(F)c(C(F)(F)F)c(F)c3)C(=O)N2C1 [PP1371] | A (a compound having 10 or more and less than 20 is denoted as A) | B (a compound having 3 or more and less than 10 is denoted as B)
5 nM | CCO[C@@H]1C[C@H]2C(=O)NC3(CCC3)C(=O)N(C)[C@@H](C3CCCC3)C(=O)N(C)[C@H](C(=O)N3CCOCC3)CC(=O)N(C)[C@@H](CC)C(=O)N[C@@H]([C@@H](C)CC)C(=O)N(C)CC(=O)N(C)[C@H]3CC[C@@H](C)CN(C3=O)[C@@H](Cc3ccc(C(F)(F)F)cc3)C(=O)N(C)CC(=O)N[C@@H](CCc3cc(F)c(C(F)(F)F)c(F)c3)C(=O)N2C1 [PP1372] | B (a compound having 3 or more and less than 10 is denoted as B) | B (a compound having 3 or more and less than 10 is denoted as B)
12.2 nM | CCO[C@@H]1C[C@H]2C(=O)NC3(CCC3)C(=O)N(C)[C@@H](C3CCCC3)C(=O)N(C)[C@H](C(=O)N3CCOCC3)CC(=O)N(C)[C@@H](CC(C)C)C(=O)N[C@@H]([C@@H](C)CC)C(=O)N3CC[C@H]3C(=O)N(C)[C@H]3CC[C@@H](C)CN(C3=O)[C@@H](Cc3ccc(C(F)(F)F)cc3)C(=O)N(C)CC(=O)N[C@@H](CCc3cc(F)c(C(F)(F)F)c(F)c3)C(=O)N2C1 [PP1373] | B (a compound having 3 or more and less than 10 is denoted as B) | B (a compound having 3 or more and less than 10 is denoted as B)
11.5 nM | CCO[C@@H]1C[C@H]2C(=O)NC3(CCC3)C(=O)N(C)[C@@H](C3CCCC3)C(=O)N(C)[C@H](C(=O)N3CCOCC3)CC(=O)N(C)[C@@H](CC)C(=O)N[C@@H]([C@@H](C)CC)C(=O)N3CC[C@H]3C(=O)N(C)[C@H]3CC[C@@H](C)CN(C3=O)[C@@H](Cc3ccc(C(F)(F)F)cc3)C(=O)N(C)CC(=O)N[C@@H](CCc3ccc(C(F)(F)F)c(Cl)c3)C(=O)N2C1 [PP1375] | B (a compound having 3 or more and less than 10 is denoted as B) | B (a compound having 3 or more and less than 10 is denoted as B)
3.5 nM | CCO[C@@H]1C[C@H]2C(=O)NC3(CCCC3)C(=O)N(C)[C@@H](C3CCCC3)C(=O)N(C)[C@H](C(=O)N(C)C)CC(=O)N(C)[C@@H](CC)C(=O)N[C@@H]([C@@H](C)CC)C(=O)N(C)CC(=O)N(C)[C@H]3CC[C@@H](C)CN(C3=O)[C@@H](Cc3ccc(C(F)(F)F)cc3)C(=O)N(C)CC(=O)N[C@@H](CCc3ccc(C(F)(F)F)c(Cl)c3)C(=O)N2C1 [PP1376] | B (a compound having 3 or more and less than 10 is denoted as B) | B (a compound having 3 or more and less than 10 is denoted as B)
5.8 nM | CCO[C@@H]1C[C@H]2C(=O)NC3(CCCC3)C(=O)N(C)[C@@H](C3CCCC3)C(=O)N(C)[C@H](C(=O)N3CCOCC3)CC(=O)N(C)[C@@H](CC)C(=O)N[C@@H]([C@@H](C)CC)C(=O)N(C)CC(=O)N(C)[C@H]3CC[C@@H](C)CN(C3=O)[C@@H](Cc3ccc(C(F)(F)F)cc3)C(=O)N(C)CC(=O)N[C@@H](CCc3ccc(C(F)(F)F)c(Cl)c3)C(=O)N2C1 [PP1377] | B (a compound having 3 or more and less than 10 is denoted as B) | B (a compound having 3 or more and less than 10 is denoted as B)
6.6 nM | CCO[C@@H]1C[C@H]2C(=O)NC3(CCC3)C(=O)N(C)[C@@H](C3CCCC3)C(=O)N(C)[C@H](C(=O)N3CCOCC3)CC(=O)N(C)[C@@H](CC)C(=O)N[C@@H]([C@@H](C)CC)C(=O)N(C)CC(=O)N(C)[C@H]3CC[C@@H](C)CN(C3=O)[C@@H](Cc3ccc(C(F)(F)F)cc3)C(=O)N(C)CC(=O)N[C@@H](CCc3ccc(C(F)(F)F)c(Cl)c3)C(=O)N2C1 [PP1378] | B (a compound having 3 or more and less than 10 is denoted as B) | C (A compound having a KD ratio of 0.1 or more and less than 3 is denoted as C)
10.3 nM | CCO[C@@H]1C[C@H]2C(=O)NC3(CCC3)C(=O)N(C)[C@@H](C3CCCC3)C(=O)N(C)[C@H](C(=O)N3CCOCC3)CC(=O)N(C)[C@@H](CC(C)C)C(=O)N[C@@H]([C@@H](C)CC)C(=O)N3CC[C@H]3C(=O)N(C)[C@H]3CC[C@@H](C)CN(C3=O)[C@@H](Cc3ccc(C(F)(F)F)cc3)C(=O)N(C)CC(=O)N[C@@H](CCc3ccc(C(F)(F)F)c(Cl)c3)C(=O)N2C1 [PP1379] | A (a compound having 10 or more and less than 20 is denoted as A) | B (a compound having 3 or more and less than 10 is denoted as B)
15.8 nM | CC[C@H](C)[C@@H]1NC(=O)[C@H](CC)N(C)C(=O)C[C@@H](C(=O)N(C)C)N(C)C(=O)[C@H](C2CCCC2)N(C)C(=O)C2(CCCC2)NC(=O)[C@@H]2CCCN2C(=O)[C@H](CCc2cc(F)c(C(F)(F)F)c(F)c2)NC(=O)CN(C)C(=O)[C@H](Cc2ccc(C(F)(F)F)cc2)N2C[C@H](C)CC[C@@H](C2=O)N(C)C(=O)CN(C)C1=O [PP1382] | B (a compound having 3 or more and less than 10 is denoted as B) | B (a compound having 3 or more and less than 10 is denoted as B)
11.2 nM | CC[C@H](C)[C@@H]1NC(=O)[C@H](CC)N(C)C(=O)C[C@@H](C(=O)N2CCOCC2)N(C)C(=O)[C@H](C2CCCC2)N(C)C(=O)C2(CCCC2)NC(=O)[C@@H]2CCCN2C(=O)[C@H](CCc2cc(F)c(C(F)(F)F)c(F)c2)NC(=O)CN(C)C(=O)[C@H](Cc2ccc(C(F)(F)F)cc2)N2C[C@H](C)CC[C@@H](C2=O)N(C)C(=O)CN(C)C1=O [PP1383] | B (a compound having 3 or more and less than 10 is denoted as B) | B (a compound having 3 or more and less than 10 is denoted as B)
13.5 nM | CC[C@H](C)[C@@H]1NC(=O)[C@H](CC)N(C)C(=O)C[C@@H](C(=O)N2CCOCC2)N(C)C(=O)[C@H](C2CCCC2)N(C)C(=O)C2(CCC2)NC(=O)[C@@H]2CCCN2C(=O)[C@H](CCc2cc(F)c(C(F)(F)F)c(F)c2)NC(=O)CN(C)C(=O)[C@H](Cc2ccc(C(F)(F)F)cc2)N2C[C@H](C)CC[C@@H](C2=O)N(C)C(=O)CN(C)C1=O [PP1384] | A (a compound having 10 or more and less than 20 is denoted as A) | B (a compound having 3 or more and less than 10 is denoted as B)
